Reference: PubChem BioAssay (NCI)
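Compound exposure: 48 hours, 5 concentrations, 96-well plates. Definition used: TGI = concentration required for complete inhibition of growth.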

What was measured:
Assay in all cases: growth of human tumour cells (NCI), 48 h
EKVX NSCLC = system: EKVX NSCLC
HCT-116 colon = system: HCT-116 colon
MDA-N = system: MDA-N
OVCAR-8 ovarian = system: OVCAR-8 ovarian
UACC-62 melanoma = system: UACC-62 melanoma
OVCAR-4 ovarian = system: OVCAR-4 ovarian
PC-3 prostate = system: PC-3 prostate
NCI-H522 lung = system: NCI-H522 lung
HCC-2998 colon = system: HCC-2998 colon
T-47D breast = system: T-47D breast
SW-620 colon = system: SW-620 colon
NCI/ADR-RES ovarian = system: NCI/ADR-RES ovarian
HCT-15 colon = system: HCT-15 colon
MDA-MB-231 breast = system: MDA-MB-231 breast
OVCAR-5 ovarian = system: OVCAR-5 ovarian
SR leukemia = system: SR leukemia
SF-268 CNS = system: SF-268 CNS
HOP-62 NSCLC = system: HOP-62 NSCLC
HL-60(TB) leukemia = system: HL-60(TB) leukemia
OVCAR-3 ovarian = system: OVCAR-3 ovarian
RXF 393 renal = system: RXF 393 renal
NCI-H460 lung = system: NCI-H460 lung
A498 renal = system: A498 renal
SNB-75 CNS = system: SNB-75 CNS
SF-539 CNS = system: SF-539 CNS
HOP-92 NSCLC = system: HOP-92 NSCLC
TK-10 renal = system: TK-10 renal
SF-295 CNS = system: SF-295 CNS
IGROV1 ovarian = system: IGROV1 ovarian
K-562 leukemia = system: K-562 leukemia
SK-MEL-28 melanoma = system: SK-MEL-28 melanoma
SK-MEL-5 melanoma = system: SK-MEL-5 melanoma
CCRF-CEM leukemia = system: CCRF-CEM leukemia
SNB-19 CNS = system: SNB-19 CNS
NCI-H226 lung = system: NCI-H226 lung
BT-549 breast = system: BT-549 breast
MOLT-4 leukemia = system: MOLT-4 leukemia
786-0 renal = system: 786-0 renal
UO-31 renal = system: UO-31 renal
ACHN renal = system: ACHN renal
KM12 colon = system: KM12 colon
CAKI-1 renal = system: CAKI-1 renal
A549 NSCLC = system: A549 NSCLC
DU-145 prostate = system: DU-145 prostate
RPMI-8226 leukemia = system: RPMI-8226 leukemia
MCF7 breast = system: MCF7 breast
HS 578T breast = system: HS 578T breast
M14 melanoma = system: M14 melanoma
LOX IMVI melanoma = system: LOX IMVI melanoma
U251 CNS = system: U251 CNS
UACC-257 melanoma = system: UACC-257 melanoma
SK-MEL-2 melanoma = system: SK-MEL-2 melanoma
NCI-H23 lung = system: NCI-H23 lung
MALME-3M melanoma = system: MALME-3M melanoma
HT29 colon = system: HT29 colon
COLO 205 colon = system: COLO 205 colon
SK-OV-3 ovarian = system: SK-OV-3 ovarian
MDA-MB-435 = system: MDA-MB-435
SN12C renal = system: SN12C renal

Which TGI (EKVX NSCLC) does the source give for CC(=O)O[C@H]1C(=O)[C@@]2(C)[C@H]([C@H](OC(=O)c3ccccc3)[C@]3(O)C[C@H](OC(=O)[C@H](O)[C@@H](NC(=O)c4ccc(N)cc4)c4ccccc4)C(C)=C1C3(C)C)[C@]1(OC(C)=O)CO[C@@H]1C[C@@H]2O here?
The TGI was greater than 50 µM.

And the TGI (HCT-116 colon)?
Its TGI is greater than 50 µM.

And the TGI (MDA-N)?
The TGI was less than 0.005 µM.

What about the TGI (OVCAR-8 ovarian) of the same compound?
Its TGI is greater than 50 µM.

What about the TGI (UACC-62 melanoma) of the same compound?
The TGI was greater than 50 µM.

And the TGI (OVCAR-4 ovarian)?
The TGI was greater than 50 µM.

And the TGI (PC-3 prostate)?
The TGI was greater than 50 µM.

And the TGI (NCI-H522 lung)?
The TGI was greater than 50 µM.

What about the TGI (HCC-2998 colon) of the same compound?
The TGI was 0.0545 µM.

And the TGI (T-47D breast)?
The TGI was greater than 50 µM.

What about the TGI (SW-620 colon) of the same compound?
The TGI was greater than 50 µM.

What about the TGI (NCI/ADR-RES ovarian) of the same compound?
Its TGI is greater than 50 µM.

What about the TGI (HCT-15 colon) of the same compound?
The TGI was greater than 50 µM.

And the TGI (MDA-MB-231 breast)?
Its TGI is greater than 50 µM.

And the TGI (OVCAR-5 ovarian)?
The TGI was greater than 50 µM.

And the TGI (SR leukemia)?
Its TGI is greater than 41.9 µM.

And the TGI (SF-268 CNS)?
Its TGI is greater than 50 µM.

And the TGI (HOP-62 NSCLC)?
Its TGI is greater than 50 µM.

What about the TGI (HL-60(TB) leukemia) of the same compound?
Its TGI is 0.318 µM.

What about the TGI (OVCAR-3 ovarian) of the same compound?
Its TGI is 0.0224 µM.

And the TGI (RXF 393 renal)?
Its TGI is greater than 50 µM.

And the TGI (NCI-H460 lung)?
The TGI was greater than 50 µM.

And the TGI (A498 renal)?
Its TGI is greater than 50 µM.

And the TGI (SNB-75 CNS)?
The TGI was greater than 50 µM.

And the TGI (SF-539 CNS)?
Its TGI is 0.0309 µM.

And the TGI (HOP-92 NSCLC)?
Its TGI is greater than 50 µM.

And the TGI (TK-10 renal)?
The TGI was greater than 50 µM.

And the TGI (SF-295 CNS)?
The TGI was greater than 50 µM.

And the TGI (IGROV1 ovarian)?
The TGI was greater than 50 µM.

What about the TGI (K-562 leukemia) of the same compound?
Its TGI is 0.26 µM.

And the TGI (SK-MEL-28 melanoma)?
Its TGI is greater than 50 µM.

What about the TGI (SK-MEL-5 melanoma) of the same compound?
The TGI was greater than 50 µM.

What about the TGI (CCRF-CEM leukemia) of the same compound?
The TGI was greater than 23.7 µM.

What about the TGI (SNB-19 CNS) of the same compound?
The TGI was greater than 50 µM.

What about the TGI (NCI-H226 lung) of the same compound?
Its TGI is 0.00862 µM.

And the TGI (BT-549 breast)?
The TGI was greater than 50 µM.

What about the TGI (MOLT-4 leukemia) of the same compound?
Its TGI is greater than 29.5 µM.

And the TGI (786-0 renal)?
The TGI was greater than 50 µM.

And the TGI (UO-31 renal)?
The TGI was greater than 50 µM.

And the TGI (ACHN renal)?
The TGI was greater than 50 µM.

And the TGI (KM12 colon)?
The TGI was greater than 50 µM.

What about the TGI (CAKI-1 renal) of the same compound?
Its TGI is greater than 50 µM.

What about the TGI (A549 NSCLC) of the same compound?
Its TGI is greater than 50 µM.

And the TGI (DU-145 prostate)?
The TGI was 31.4 µM.

And the TGI (RPMI-8226 leukemia)?
Its TGI is less than 0.005 µM.

What about the TGI (MCF7 breast) of the same compound?
Its TGI is greater than 50 µM.

What about the TGI (HS 578T breast) of the same compound?
The TGI was 0.0126 µM.

And the TGI (M14 melanoma)?
The TGI was greater than 50 µM.

What about the TGI (LOX IMVI melanoma) of the same compound?
Its TGI is greater than 50 µM.

And the TGI (U251 CNS)?
Its TGI is greater than 50 µM.

Which TGI (EKVX NSCLC) does the source give for COc1ccc(CC2Cc3ccccc3CCN2)cc1OC (centres undefined) here?
The TGI was greater than 50 µM.

And the TGI (HCT-116 colon)?
The TGI was greater than 50 µM.

And the TGI (UACC-257 melanoma)?
The TGI was greater than 50 µM.

What about the TGI (MDA-N) of the same compound?
The TGI was greater than 50 µM.

And the TGI (OVCAR-8 ovarian)?
The TGI was greater than 50 µM.

What about the TGI (UACC-62 melanoma) of the same compound?
The TGI was greater than 50 µM.

What about the TGI (OVCAR-4 ovarian) of the same compound?
Its TGI is greater than 50 µM.

What about the TGI (SK-MEL-2 melanoma) of the same compound?
The TGI was greater than 50 µM.

And the TGI (PC-3 prostate)?
The TGI was greater than 50 µM.

And the TGI (HCC-2998 colon)?
The TGI was greater than 50 µM.

And the TGI (T-47D breast)?
Its TGI is greater than 50 µM.

And the TGI (SW-620 colon)?
Its TGI is greater than 50 µM.

And the TGI (NCI/ADR-RES ovarian)?
Its TGI is greater than 50 µM.

What about the TGI (HCT-15 colon) of the same compound?
Its TGI is greater than 50 µM.

What about the TGI (MDA-MB-231 breast) of the same compound?
The TGI was greater than 50 µM.

What about the TGI (OVCAR-5 ovarian) of the same compound?
Its TGI is greater than 50 µM.

And the TGI (NCI-H23 lung)?
The TGI was greater than 50 µM.

What about the TGI (SF-268 CNS) of the same compound?
The TGI was greater than 50 µM.

And the TGI (HOP-62 NSCLC)?
The TGI was greater than 50 µM.

And the TGI (HL-60(TB) leukemia)?
The TGI was greater than 50 µM.

And the TGI (OVCAR-3 ovarian)?
Its TGI is greater than 50 µM.

And the TGI (RXF 393 renal)?
Its TGI is greater than 50 µM.

What about the TGI (MALME-3M melanoma) of the same compound?
The TGI was greater than 50 µM.

And the TGI (HT29 colon)?
The TGI was greater than 50 µM.

What about the TGI (NCI-H460 lung) of the same compound?
Its TGI is greater than 50 µM.

And the TGI (A498 renal)?
The TGI was greater than 50 µM.

What about the TGI (SNB-75 CNS) of the same compound?
Its TGI is greater than 50 µM.

And the TGI (COLO 205 colon)?
Its TGI is 21.4 µM.

What about the TGI (SF-539 CNS) of the same compound?
The TGI was greater than 50 µM.

And the TGI (HOP-92 NSCLC)?
The TGI was greater than 50 µM.

And the TGI (SF-295 CNS)?
The TGI was greater than 50 µM.

What about the TGI (IGROV1 ovarian) of the same compound?
The TGI was greater than 50 µM.

What about the TGI (K-562 leukemia) of the same compound?
The TGI was greater than 50 µM.

And the TGI (SK-MEL-28 melanoma)?
Its TGI is greater than 50 µM.

And the TGI (SK-OV-3 ovarian)?
The TGI was greater than 50 µM.

And the TGI (CCRF-CEM leukemia)?
Its TGI is greater than 50 µM.

What about the TGI (SNB-19 CNS) of the same compound?
The TGI was greater than 50 µM.

What about the TGI (NCI-H226 lung) of the same compound?
Its TGI is greater than 50 µM.

What about the TGI (MDA-MB-435) of the same compound?
Its TGI is greater than 50 µM.

What about the TGI (BT-549 breast) of the same compound?
Its TGI is greater than 50 µM.

And the TGI (MOLT-4 leukemia)?
The TGI was greater than 50 µM.

And the TGI (786-0 renal)?
Its TGI is greater than 50 µM.

What about the TGI (UO-31 renal) of the same compound?
Its TGI is greater than 50 µM.

And the TGI (KM12 colon)?
Its TGI is greater than 50 µM.

And the TGI (CAKI-1 renal)?
Its TGI is greater than 50 µM.

What about the TGI (A549 NSCLC) of the same compound?
The TGI was greater than 50 µM.

And the TGI (DU-145 prostate)?
The TGI was greater than 50 µM.

And the TGI (SN12C renal)?
Its TGI is greater than 50 µM.

What about the TGI (RPMI-8226 leukemia) of the same compound?
Its TGI is greater than 50 µM.

What about the TGI (MCF7 breast) of the same compound?
Its TGI is greater than 50 µM.

What about the TGI (HS 578T breast) of the same compound?
The TGI was greater than 50 µM.

What about the TGI (M14 melanoma) of the same compound?
Its TGI is greater than 50 µM.

And the TGI (LOX IMVI melanoma)?
Its TGI is greater than 50 µM.

What about the TGI (U251 CNS) of the same compound?
Its TGI is greater than 50 µM.
